Each structure is given as a SMILES string. “And” between values parts separate entries of the source, which are not always exact repeats. Equal entries are not always repeated.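 48-hour exposure; five concentrations; linearly interpolated endpoints. Abbreviation: GI50, concentration required for 50% inhibition of growth. At the TGI there is no net growth.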 Where a SMILES comes first, the peptide text is derived from it. Bridges are numbered along the chain shown (N, C = ends). Roman numbers before positions name the chains, in order. [ ]: non-standard residue; d: D form. The star is where a group is joined. Quinoxaline2carbonyl = O=C(c1cnc2ccccc2n1)*; NMeV = CN[CH](C(=O)O)C(C)C; NMeC = CN[CH](CS)C(=O)O

Some test systems named below: MDA-MB-231 breast; SK-OV-3 ovarian; HT29 colon; NCI-H23 lung; RXF 393 renal; HCT-15 colon; HOP-92 NSCLC; SK-MEL-5 melanoma; EKVX NSCLC; SF-539 CNS.
What all share (experiment): NCI-60 cell line screen, 48 h

For the compound `N/N=C1\CC(=O)NC(=O)N1`, the TGI in the experiment with MDA-MB-231 breast, in the experiment with SK-OV-3 ovarian, in the experiment on HT29 colon, in the experiment on NCI-H23 lung, in the experiment with RXF 393 renal and with HCT-15 colon was greater than 100 µM in each case. Besides, the TGI in the experiment on HOP-92 NSCLC, with SK-MEL-5 melanoma and in the experiment on EKVX NSCLC was greater than 100 µM in each case.

With `COC1O[C@@H]2C[C@H]3C(C)(C)CCC[C@]3(C)C3=CCCC1[C@@]32C` (some centres undefined), the GI50 in the experiment on MDA-MB-231 breast, in the experiment on HT29 colon, in the experiment on NCI-H23 lung, with RXF 393 renal, with HCT-15 colon and in the experiment with SF-539 CNS was greater than 100 µM each time. Further, the GI50 in the experiment with HOP-92 NSCLC, in the experiment with SK-MEL-5 melanoma and in the experiment on EKVX NSCLC was greater than 100 µM in each case. Moreover, the TGI with MDA-MB-231 breast, in the experiment with HT29 colon, in the experiment on NCI-H23 lung, in the experiment on RXF 393 renal, in the experiment with HCT-15 colon and in the experiment on SF-539 CNS was greater than 100 µM each time. Also, the TGI in the experiment with HOP-92 NSCLC, in the experiment with SK-MEL-5 melanoma and in the experiment with EKVX NSCLC was greater than 100 µM throughout.

As to `CN1CCN(Cc2ccc(NC(=O)c3[nH]ncc3Nc3ncnc4sc5c(c34)CCCC5)cc2)CC1`, the GI50 in the experiment on MDA-MB-231 breast was 0.333 µM; in the experiment with SK-OV-3 ovarian, 0.198 µM; with HT29 colon it was 0.234 µM; in the experiment on RXF 393 renal, 0.229 µM; in the experiment on HCT-15 colon, 0.197 µM; in the experiment with SF-539 CNS it was 0.457 µM. In addition, the GI50 in the experiment on HOP-92 NSCLC is 1.48 µM; with SK-MEL-5 melanoma, 0.543 µM. Further, the TGI in the experiment with MDA-MB-231 breast stood at 1.45 µM; in the experiment on SK-OV-3 ovarian it was 3.01 µM; in the experiment with HT29 colon it was 1.92 µM; with RXF 393 renal, 0.949 µM; in the experiment on HCT-15 colon, 1.28 µM; in the experiment with SF-539 CNS, 1.71 µM. Moreover, the TGI came out at 4.81 µM in the experiment on HOP-92 NSCLC and 1.87 µM in the experiment on SK-MEL-5 melanoma.

As for `CC1NC(=O)C(NC(=O)c2cnc3ccccc3n2)COC(=O)C(C(C)C)N(C)C(=O)C2CSSCC(C(=O)N(C)C(C(C)C)C(=O)OCC(NC(=O)c3cnc4ccccc4n3)C(=O)NC(C)C(=O)N2C)N(C)C1=O` (centres undefined) (I: Quinoxaline2carbonyl-SA[NMeC][NMeV] / II: Quinoxaline2carbonyl-SA[NMeC][NMeV]; ester I:1-II:C, I:C-II:1; disulfide I:3-II:3; configuration not given here), the TGI in the experiment on MDA-MB-231 breast was 0.294 µM; with SK-OV-3 ovarian, 6.87 µM; in the experiment with NCI-H23 lung, less than 0.0133 µM; with RXF 393 renal, less than 0.01 µM; in the experiment with HCT-15 colon it was 0.365 µM; in the experiment on HOP-92 NSCLC it was greater than 35.7 µM.

Turning to `CCC1(O)C(=O)OCc2c1cc1n(c2=O)Cc2cc3cc(N)ccc3nc2-1` (centres undefined), the TGI was greater than 64.8 µM with MDA-MB-231 breast; 0.207 µM in the experiment with SK-OV-3 ovarian; 0.0817 µM in the experiment with NCI-H23 lung; 1.12 µM in the experiment with RXF 393 renal; 3.55 µM in the experiment with HCT-15 colon; less than 0.01 µM in the experiment on SF-539 CNS. Also, the results for the TGI in the experiment on SK-MEL-5 melanoma and in the experiment on EKVX NSCLC were 0.0761 µM and greater than 28.9 µM, respectively. Besides, in the experiment on RXF 393 renal, the GI50 is 0.126 µM.

Regarding `CC(C)(C)CN1CCn2c(nc3c(N)nccc32)S1`, the GI50 in the experiment with MDA-MB-231 breast was 19.8 µM; in the experiment with SK-OV-3 ovarian it was 5.15 µM; in the experiment on NCI-H23 lung, 5.17 µM; in the experiment on RXF 393 renal it was 15.7 µM; in the experiment with HCT-15 colon it was 3.92 µM; in the experiment with SF-539 CNS, 18.2 µM. Besides, the GI50 in the experiment with HOP-92 NSCLC is 96.5 µM; in the experiment with SK-MEL-5 melanoma, 14.5 µM; with EKVX NSCLC, 30.9 µM. Moreover, the TGI with MDA-MB-231 breast is greater than 100 µM; with SK-OV-3 ovarian, 81 µM; in the experiment on NCI-H23 lung, 34 µM; in the experiment with RXF 393 renal, 64.5 µM; with HCT-15 colon it was 26.2 µM; in the experiment on SF-539 CNS it was 78.9 µM. Besides, the TGI with HOP-92 NSCLC was greater than 100 µM; in the experiment on SK-MEL-5 melanoma it was 31.1 µM; in the experiment with EKVX NSCLC, greater than 100 µM.

On to `Cc1nc2ccccc2c(/C=C/c2ccc(Br)cc2)c1C(=O)/C=C/c1ccccc1`, for which the GI50 is 1.84 µM in the experiment with MDA-MB-231 breast; 1.88 µM with SK-OV-3 ovarian; 1.48 µM with HT29 colon; 1.66 µM in the experiment on NCI-H23 lung; 1.64 µM with RXF 393 renal; 1.31 µM with HCT-15 colon. For the same compound, the GI50 in the experiment on SF-539 CNS is 1.76 µM; with SK-MEL-5 melanoma it was 1.72 µM; in the experiment on EKVX NSCLC, 1.75 µM. The TGI with MDA-MB-231 breast worked out at 3.94 µM; with SK-OV-3 ovarian, 4.15 µM; with HT29 colon, 6.58 µM; in the experiment on NCI-H23 lung, 3.81 µM; in the experiment on RXF 393 renal it was 3.07 µM; with HCT-15 colon, 3.71 µM. Besides, the TGI in the experiment with SF-539 CNS worked out at 3.2 µM; in the experiment with SK-MEL-5 melanoma it was 3.11 µM; in the experiment on EKVX NSCLC it was 3.32 µM.

With `CC1=CC(=O)C(O)C2(C)C1CC(O)C13COC4(C)C(OC(=O)C41)C(O)C23` (centres undefined), the GI50 with MDA-MB-231 breast was 15.4 µM; in the experiment on SK-OV-3 ovarian, 16.5 µM; in the experiment on HT29 colon it was 9.02 µM; in the experiment with NCI-H23 lung, 4.8 µM; in the experiment with RXF 393 renal, 1.36 µM; in the experiment with HCT-15 colon it was 4.47 µM. For the same compound, the GI50 in the experiment with SF-539 CNS is 8.13 µM; in the experiment with SK-MEL-5 melanoma, 5.06 µM; with EKVX NSCLC it was 11.9 µM. Moreover, the TGI with MDA-MB-231 breast is 43.9 µM; in the experiment on SK-OV-3 ovarian it was 95.7 µM; in the experiment with HT29 colon, greater than 100 µM; in the experiment with NCI-H23 lung, 18.6 µM; with RXF 393 renal, 6.98 µM; in the experiment with HCT-15 colon it was 23.4 µM. The TGI with SF-539 CNS was 35.5 µM; with SK-MEL-5 melanoma it was 21.2 µM; in the experiment with EKVX NSCLC, 41.6 µM.

Take `C/C1=C\[C@@H](O)C(=O)/C=C/C=C\c2csc(n2)[C@@H](C)NC(=O)C[C@@]2(CC1)S(=O)SC(=O)[C@]2(C)O` (some centres undefined): the TGI in the experiment with MDA-MB-231 breast is 0.265 µM; in the experiment with SK-OV-3 ovarian it was 0.472 µM and 2.74 µM; with NCI-H23 lung, 0.0275 µM and 0.0102 µM; in the experiment on RXF 393 renal it was 0.0331 µM; in the experiment with SF-539 CNS, 0.0495 µM and 0.023 µM; in the experiment with HOP-92 NSCLC, 0.011 µM. The TGI in the experiment on SK-MEL-5 melanoma is 0.0435 µM and 0.0168 µM; in the experiment on EKVX NSCLC it was 0.612 µM. Moreover, the GI50 in the experiment on SK-OV-3 ovarian was 0.181 µM.

For `COc1ccc(C2[C@@H](Cl)C(=O)N2c2cc(OC)c(OC)c(OC)c2)cc1Cl` (some centres undefined), the GI50 in the experiment with MDA-MB-231 breast is 0.273 µM; in the experiment with SK-OV-3 ovarian, 0.29 µM; in the experiment on HT29 colon, 0.221 µM; with NCI-H23 lung it was 0.428 µM; with RXF 393 renal, 0.0615 µM; with HCT-15 colon, 0.191 µM. The GI50 in the experiment on HOP-92 NSCLC is 2.29 µM; in the experiment on SK-MEL-5 melanoma, 0.102 µM; in the experiment on EKVX NSCLC, 0.434 µM. In addition, the TGI was 26.1 µM with MDA-MB-231 breast; greater than 100 µM in the experiment on SK-OV-3 ovarian; 0.752 µM in the experiment on HT29 colon; greater than 100 µM with NCI-H23 lung; 65.5 µM with RXF 393 renal; greater than 100 µM in the experiment with HCT-15 colon. The values for the TGI in the experiment on HOP-92 NSCLC, in the experiment on SK-MEL-5 melanoma and with EKVX NSCLC were 85.9 µM, 0.795 µM and greater than 100 µM, respectively.

The values are drawn from PubChem BioAssay (NCI).
